The results in this text go back to US8465983B1, “Detection and delivery systems utilizing supported lipid bilayers” (priority 2005, dated 2013).

The subject of the assay is DMPG lipid bilayer supported on MS-PPE. In words: Superquenching flow cytometric assay for disruption of DMPG lipid bilayer supported on MS-PPE. The assay is classed as biochemical. How it is done: Lipid bilayers were disrupted by adding TRITON X-100 detergent to the bead suspension to a final concentration of 0.25% (w/v).
Bead suspensions of 2.5×10^5 DMPG-coated MS-PPE in 200 μL of PBS were analyzed using a FACScan flow cytometer (Becton-Dickinson, Sunnyvale, Calif.) with excitation at 488 nm. Fluorescence signals were acquired on FL-1 channel (525 nm) using log amplification and analyzed with the CellQuest software. Kinetic analysis of disruption of supported lipid bilayer by melittin was performed by acquiring real-time data with continuous mixing of samples (10^6 MS-PPE in 800 μl of PBS) using a magnetic stirrer. The raw data were analyzed using IDL Query software developed by Bruce Edwards (Cancer Center, University of New Mexico, Albuquerque, N. Mex.).
Because an anionic lipid was used to form a lipid bilayer around MS-PPE, it was expected that MLT will disrupt the DMPG lipid bilayer by such a detergent-like action. This was tested by adding 10 μM AQS to DMPG-coated MS-PPE followed by treatment with one of the following: TRITON X-100 detergent, synthetic MLT (sMLT), or natural MLT (nMLT) and immediately reading the fluorescence by flow cytometry. […] These histograms resemble the ones reported previously for MS-PPE, without a lipid coating, in absence and in presence of AQS.
From FIG. 18, the association constant (corresponding to the reciprocal of the point of half saturation) for nMLT and sMLT with DMPG were 5×10^6 M^−1 and 1.7×10^6 M^−1, respectively. […] Lower concentrations of nMLT, in comparison to sMLT, were required to disrupt the DMPG lipid bilayer. This might be attributed to the fact that nMLT contains some phospholipase A2 (PLA2) as a contaminant. PLA2 has a high affinity for anionic phospholipids, with an association constant of 0.5×10^10 M^−1 (Kim et al., Anal. Chem. 250, 109-116 (1997)), which is about 3000 fold higher than that of MLT. Although PLA2 activity requires calcium, which is not present in the experimental system, it has been reported that even upon addition of EDTA to natural MLT, PLA2 maintains its activity, probably due to formation of a tight complex with calcium with PLA2 (Dempsey, C. E. Biochim. Biophys. Acta 1990, 1031, 143-161).
The kinetics of disruption of supported lipid bilayer by MLT were monitored by measuring real-time changes in fluorescence intensity by flow cytometry (FIG. 19). Suspensions of 10^6 DMPG-coated MS-PPE in 800 μL of PBS were treated with AQS at a final concentration of 10 μM, then with either sMLT, TRITON X-100 detergent, or no treatment. […] Treatment with sMLT in the absence of AQS led to an increase in normalized fluorescence (FIG. 19, trace A). This can be attributed to disruption of the lipid bilayer by sMLT, and is consistent with a reversal of the slight quenching of fluorescence caused by the formation of a DMPG lipid bilayer over MS-PPE. Addition of AQS alone to DMPG-coated MS-PPE (FIG. 19, trace C) led to a 20% reduction in fluorescence as reported earlier. Addition of TRITON X-100 detergent to DMPG-coated MS-PPE after the addition of AQS (first dip in trace E, FIG. 19) caused immediate decrease in fluorescence to ˜10% of its original value (second dip in trace E, FIG. 19). In contrast, addition of sMLT, after the addition of AQS, (FIG. 19, trace D) led to a gradual reduction of fluorescence intensity to ˜20% of the original value. Although MLT forms dimers at high concentrations (Dempsey, C. E. Biochim. Biophys. Acta 1990, 1031, 143-161), it is monomeric at the concentrations used in this study. On the other hand, TRITON X-100 detergent forms micelles at the concentration used in this study.

TRITON X-100: under “0.25% (w/v) TRITON X-100, 10 μM AQS, Example 2”, the “fluorescence after disruption of the lipid bilayer, % of the original fluorescence value” is around 10%. Also, the “fluorescence after disruption, % of the fluorescence of DMPG-coated MS-PPE in the absence of quencher” value (0.25% (w/v) TRITON X-100, 10 μM AQS, Example 3) is around 18%. Besides, the “fluorescence intensity after addition, % of original value (real-time kinetics)” value (10^6 DMPG-coated MS-PPE in 800 μL PBS, after 10 μM AQS) is listed as around 10%.
